Data as given in patent publication US20090239845A1, “PYRAZOLE COMPOUNDS AS PROSTAGLANDIN RECEPTORS LIGANDS” (priority 2005, published 2009).
Where a name gives a salt, the structure may show the parent alone.

What follows are molecules tested against T1, human EP1 receptor (Homo sapiens, UniProt P34995) (assay: human EP1 calcium mobilisation assay). Details: negative logarithm10 of the antagonist dissociation constant; CHO-K1 cells, PGE2; free bases or sodium salts; averages of a number of experiments; read-out: functional pKi value (converted).
T1 construct: expressed in transfected cells; host or cells: CHO-K1
T1 sequence (P34995 1-402): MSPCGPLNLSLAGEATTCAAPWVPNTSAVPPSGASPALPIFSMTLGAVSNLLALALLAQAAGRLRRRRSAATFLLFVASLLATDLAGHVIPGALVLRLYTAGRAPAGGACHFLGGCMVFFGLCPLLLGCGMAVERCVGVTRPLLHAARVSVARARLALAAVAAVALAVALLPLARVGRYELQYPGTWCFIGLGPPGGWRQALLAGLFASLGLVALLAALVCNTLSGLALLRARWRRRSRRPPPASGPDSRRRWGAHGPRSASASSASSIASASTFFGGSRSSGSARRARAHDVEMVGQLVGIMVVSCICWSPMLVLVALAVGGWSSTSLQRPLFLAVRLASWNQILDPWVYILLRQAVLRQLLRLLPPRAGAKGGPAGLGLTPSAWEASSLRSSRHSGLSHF
Format: cell-based
Description: Briefly, the antagonist properties of compounds are assessed by their ability to inhibit the mobilisation of intracellular calcium ([Ca^2+]i) in response to activation of EP1 or EP3 receptors by the natural agonist hormone prostaglandin E2 (PGE2). Increasing concentrations of antagonist reduce the amount of calcium that a given concentration of PGE2 can mobilise. The net effect is to displace the PGE2 concentration-effect curve to higher concentrations of PGE2. The amount of calcium produced is assessed using a calcium-sensitive fluorescent dye such as Fluo-4, AM and a suitable instrument such as a Fluorimetric Imaging Plate Reader (FLIPR). Increasing amounts of [Ca^2+]i produced by receptor activation increase the amount of fluorescence produced by the dye and give rise to an increasing signal. The signal may be detected using the FLIPR instrument and the data generated may be analysed with suitable curve-fitting software.
The human EP1 or EP3 calcium mobilisation assay (hereafter referred to as ‘the calcium assay’) utilises Chinese hamster ovary-K1 (CHO-K1) cells into which a stable (pCIN; BioTechniques 20 (1996): 102-110) vector containing either EP1 or EP3 cDNA has previously been transfected. Cells are cultured in suitable flasks containing culture medium such as DMEM:F-12 supplemented with 10% v/v foetal calf serum, 2 mM L-glutamine, 0.25 mg/ml geneticin, 100 μM flurbiprofen and 10 μg/ml puromycin.
For assay, cells are harvested using a proprietary reagent that dislodges cells such as Versene. Cells are re-suspended in a suitable quantity of fresh culture media for introduction into a 384-well plate. Following incubation for 24 hours at 37° C. the culture media is replaced with a medium containing Fluo-4 and the detergent pluronic acid, and a further incubation takes place. Concentrations of compounds are then added to the plate in order to construct concentration-effect curves. This may be performed on the FLIPR in order to assess the agonist properties of the compounds. Concentrations of PGE2 are then added to the plate in order to assess the antagonist properties of the compounds.
The data so generated may be analysed by means of a computerised curve-fitting routine. The concentration of compound that elicits a half-maximal inhibition of the calcium mobilisation induced by PGE2 (plC50) may then be estimated.

Compound	Ki [µM]
Cc1cc(NC(=O)Cc2ccncc2)nn1Cc1cc(Cl)ccc1OCc1ccccc1 [Example 149, N-[1-({5-Chloro-2-[(phenylmethyl)oxy]phenyl}methyl)-5-methyl-1H-pyrazol-3-yl]-2-(4-pyridinyl)-acetamide]	> 1
CC(=O)Nc1cc(C)n(Cc2cc(Cl)ccc2OCC(C)C)n1 [Example 103, N-[1-({5-Chloro-2-[(2-methylpropyl)oxy]phenyl}methyl)-5-methyl-1H-pyrazol-3-yl]acetamide]	> 1
Cc1cc(C(=O)NCc2ccccc2)nn1Cc1cc(Cl)ccc1OCc1ccccc1 [Example 292, 1-({5-Chloro-2-[(phenylmethyl)oxy]phenyl}methyl)-5-methyl-N-(phenylmethyl)-1H-pyrazol-3-carboxamide]	> 1
Cc1cc(C(=O)NCc2ccccn2)nn1Cc1cc(Cl)ccc1OCc1ccc(F)c(F)c1F [Example 339, 1-[(5-Chloro-2-{[(2,3,4-trifluoro-phenyl)methyl]oxy}phe-nyl)methyl]-5-methyl-N-(2-pyridinylmethyl)-1H-pyrazole-3-carboxamide]	> 1
Cc1cc(NC(=O)c2ccc(CNCC(C)C)c(F)c2)nn1Cc1cc(Cl)ccc1OCC(C)C [Example 438, N-[1-({5-chloro-2-[(2-methylpropyl)oxy]phenyl}methyl)-5-methyl-1H-pyrazol-3-yl]-3-fluoro-4-{[(2-methylpropyl)amino]methyl}benzamide hydrochloride]	> 1
Cc1cc(NC(=O)Cc2ccccc2)nn1Cc1cc(Cl)ccc1OCc1ccc(F)c(F)c1 [Example 128, N-{1-[(5-Chloro-2-{[(3,4-difluorophenyl)methyl]oxy}phenyl)methyl]-5-methyl-1H-pyrazol-3-yl}-2-phenylacetamide]	> 1
Cc1cc(NC(=O)c2cnccn2)nn1Cc1cc(Cl)ccc1OCc1ccccc1 [Example 144, N-[1-({5-Chloro-2-[(phenylmethyl)oxy]phenyl}methyl)-5-methyl-1H-pyrazol-3-yl]-2-pyrazinecarboxamide]	> 1
Cc1cc(-c2nc3nccnc3[nH]2)nn1Cc1cc(Cl)ccc1OCc1ccccc1 [Example 368, 2-[1-({5-Chloro-2-[(phenylmethyl)oxy]phenyl}methyl)-5-methyl-1H-pyrazol-3-yl]-1H-imidazo[4,5-b]pyrazine hydrochloride]	> 1
Cc1cc(NC(=O)Cc2ccccc2)nn1Cc1cc(Cl)ccc1OCc1ccc(Cl)cc1Cl [Example 125, N-{1-[(5-Chloro-2-{[(2,4-dichlorophenyl)methyl]oxy}phenyl)methyl]-5-methyl-1H-pyrazol-3-yl}-2-phenylacetamide]	> 1
COC(=O)Nc1cc(C)n(Cc2cc(Cl)ccc2OCc2ccccc2)n1 [Example 65, Methyl[1-({5-chloro-2-[(phenylmethyl)oxy]phenyl}methyl)-5-methyl-1H-pyrazol-3-yl]carbamate]	> 1
Cc1cc(NC(=O)c2ccc3c(c2)CCN(C(=O)OC(C)(C)C)CC3)nn1Cc1cc(Cl)ccc1OCC(C)C [Example 97, 1,1-Dimethylethyl 7-({[1-({5-chloro-2-[(2-methylpropyl)oxy]phenyl}methyl)-5-methyl-1H-pyrazol-3-yl]amino}carbonyl)-1,2,4,5-tetrahydro-3H-3-benzazepine-3-carboxylate]	> 1
Cc1cc(-c2cnc(-n3cccn3)[nH]2)nn1Cc1cc(Cl)ccc1OCc1ccccc1 [Example 481, 1-({5-Chloro-2-[(phenylmethyl)oxy]phenyl}methyl)-5-methyl-3-[2-(1H-pyrazol-1-yl)-1H-imidazol-4-yl]-1H-pyrazole hydrochloride]	> 1
Cc1cc(OC(=O)NC2CCCCC2)nn1Cc1cc(Cl)ccc1OCc1ccccc1 [Example 43, 1-({5-Chloro-2-[(phenylmethyl)oxy]phenyl}methyl)-5-methyl-1H-pyrazol-3-yl cyclohexylcarbamate]	> 1
Cc1cc(C(=O)NCc2cccnc2)nn1Cc1cc(Cl)ccc1OCc1ccccc1 [Example 294, 1-({5-Chloro-2-[(phenylmethyl)oxy]phenyl}methyl)-5-methyl-N-(3-pyridinylmethyl)-1H-pyrazole-3-carboxamide]	> 1
Cc1cc(N2CCN(CC3CCCCC3)CC2=O)nn1Cc1cc(Cl)ccc1OCc1ccccc1 [Example 249, 1-[1-({5-Chloro-2-[(phenylmethyl)oxy]phenyl}methyl)-5-methyl-1H-pyrazol-3-yl]-4-(cyclohexylmethyl)-2-piperazinone hydrochloride]	> 1
Cc1cc(NC(=O)c2ccc3c(c2)CCNCC3)nn1Cc1cc(Cl)ccc1OCC(C)C [Example 98, N-[1-({5-Chloro-2-[(2-methylpropyl)oxy]phenyl}methyl)-5-methyl-1H-pyrazol-3-yl]-2,3,4,5-tetrahydro-1H-3-benzazepine-7-carboxamide hydrochloride]	> 1
Cc1cc(N2CCN(Cc3ccccc3)CC2)nn1Cc1cc(Cl)ccc1OCc1ccccc1 [Example 288, 4-[1-({5-Chloro-2-[(phenylmethyl)oxy]phenyl}methyl)-5-methyl-1H-pyrazol-3-yl]-1-(phenylmethyl)piperazin-1-ium chloride]	> 1
Cc1cc(C(=O)Nc2ccccn2)nn1Cc1cc(Cl)ccc1OCc1ccccc1 [Example 297, 1-({5-Chloro-2-[(phenylmethyl)oxy]phenyl}methyl)-5-methyl-N-2-pyridinyl-1H-pyrazole-3-carboxamide]	> 1
CCN(CC)Cc1ccc(C(=O)Nc2cc(C)n(Cc3cc(Cl)ccc3OCC(C)C)n2)cc1F [Example 435, N-[1-({5-chloro-2-[(2-methylpropyl)oxy]phenyl}methyl)-5-methyl-1H-pyrazol-3-yl]-4-[(diethylamino)methyl]-3-fluorobenzamide hydrochloride]	> 1
Cc1cc(OC(=O)NCc2ccc(NC(=O)OC(C)(C)C)cc2)nn1Cc1cc(Cl)ccc1OCc1ccccc1 [Example 56, 1-({5-Chloro-2-[(phenylmethyl)oxy]phenyl}methyl)-5-methyl-1H-pyrazol-3-yl {[4-({[(1,1-dimethylethyl)oxy]carbonyl}amino)phenyl]methyl}carbamate]	> 1
Cc1cc(C(=O)NCc2ccccn2)nn1Cc1cc(Cl)ccc1OCc1cc(F)c(F)cc1F [Example 338, 1-[(5-Chloro-2-{[(2,4,5-trifluorophenyl)methyl]oxy}phe-nyl)methyl]-5-methyl-N-(2-pyridinylmethyl)-1H-pyrazole-3-carboxamide]	> 1
Cc1cc(C(=O)Nc2ccccc2C#N)nn1Cc1cc(Cl)ccc1OCc1ccccc1 [Example 304, 1-({5-Chloro-2-[(phenylmethyl)oxy]phenyl}methyl)-N-(2-cyanophenyl)-5-methyl-1H-pyrazole-3-carboxamide]	> 1
Cc1cc(OC(=O)NCc2cccc(CNC(=O)OC(C)(C)C)c2)nn1Cc1cc(Cl)ccc1OCc1ccccc1 [Example 61, 1-({5-Chloro-2-[(phenylmethyl)oxy]phenyl}methyl)-5-methyl-1H-pyrazol-3-yl 1,1-dimethylethyl (benzene-1,3-diyldimethanediyl)biscarbamate]	> 1
Cc1cc(-c2nc3cc(F)c(F)cc3[nH]2)nn1Cc1cc(Cl)ccc1OCC(C)C [Example 376, 2-[1-({5-Chloro-2-[(2-methylpropyl)oxy]phenyl}methyl)-5-methyl-1H-pyrazol-3-yl]-5,6-difluoro-1H-benzimidazole]	> 1
Cc1cc(NC(=O)Cc2ccccc2)nn1Cc1cc(Cl)ccc1OCc1ccccc1Cl [Example 129, N-{1-[(5-Chloro-2-{[(2-chlorophenyl)methyl]oxy}phenyl)methyl]-5-methyl-1H-pyrazol-3-yl}-2-phenylacetamide]	> 1
Cc1cc(NC(=O)c2ccc(C#N)cc2)nn1Cc1cc(Cl)ccc1OCc1ccccc1 [Example 142, N-[1-({5-Chloro-2-[(phenylmethyl)oxy]phenyl}methyl)-5-methyl-1H-pyrazol-3-yl]-4-cyanobenzamide]	> 1
